Tested on: E. amylovora 153N
Assay: Fire blight on Snow Drift crabapple trees (Example 287)
Assay type: in vivo, Erwinia amylovora
Details: rate 5 lbs/a (2.27 kg/a), mean of the counts, 100 blossoms per subplot
Method: A study of the bioefficacy of the various agrichemical compositions, including bioactive acid solutions and blends thereof with an antibiotic agrichemical, were evaluated to assess their bioefficacy against fire blight on crabapples. The study was conducted on 5 year old Snow Drift crabapple trees, with each of the compositions being applied to ten trees in two-subplots of five trees, four different times: at 100% bloom—day 1, a second application was made on day 4, a third on day 11 and a final treatment on day 19. The trees were inoculated with E. amylovora 153N at a concentration of 4×10^6 cells per milliliter on day 1, following drying of the treatment, with the inoculation being repeated on day 13. Evaluation for fire blight was completed on 100 blossoms for each of the subplots on day 12, day 19 and day 27. Additionally, the incidence of shoot infection and the length of cankers were evaluated on day 63.
The test compositions were prepared by forming solutions of the bioactive agents. Two different dilutions of the MI2 bioactive were evaluated; the first employing 94.46 ml/gallon (25 ml/l) of water (5 ppm of each metal) and the second 188.9 ml/gallon (50 ml/l) of water (10 ppm of each metal). A streptomycin product (17% concentrated) was diluted at a rate of 0.049 lbs/gallon ([…]) (200 ppm). Finally, copper hydroxide was diluted at a rate of 1 lb/gallon (119.8 g/l). Each of the compositions and blends were spray applied at a rate of 50 gallons (189.3 l) pre acre. The results are presented as the mean of the counts.

What does the source list for `[Cu+2].[OH-].[OH-]` [copper hydroxide]?
Blossom Incidence (Day 12): 3.1; Blossom Incidence (Day 19): 2.2; Blossom Incidence (Day 27): 9.0

Reference: patent US20080299222A1, “Bioactive agrichemical compositions and use thereof” (priority 2007, published 2008)
